Values after ≈ are worked out from the molar mass of the structure shown. Where a SMILES comes first, the peptide text is derived from it. [ ]: non-standard residue; d: D form. The star is where a group is joined. AMC = Cc1cc(=O)oc2cc(N*)ccc12; pGlu = O=C1CC[C@@H](C(=O)O)N1; Phg = N[C@H](C(=O)O)c1ccccc1; Pip = O=C(O)[C@@H]1CCCCN1 A value given as a limit tells only on which side of the number the result lay.

Here are results for eight compounds from patent publication US7378397B2 (The Provost, Fellows and Scholars of the College of the …, priority 2000, dated 2008).

The target in series [1] is T1, TRH-DE (Sus scrofa, UniProt A0A287AP33).
T1 construct: The inventor purified TRH-DE from porcine brain according to purification procedures previously published by Dr. K. Bauer; from tissue; host or cells: porcine brain (TRH-DE); bovine kidney (DPP-IV, gift from Dr. C. H. Williams)
T1 sequence (A0A287AP33 1-1066): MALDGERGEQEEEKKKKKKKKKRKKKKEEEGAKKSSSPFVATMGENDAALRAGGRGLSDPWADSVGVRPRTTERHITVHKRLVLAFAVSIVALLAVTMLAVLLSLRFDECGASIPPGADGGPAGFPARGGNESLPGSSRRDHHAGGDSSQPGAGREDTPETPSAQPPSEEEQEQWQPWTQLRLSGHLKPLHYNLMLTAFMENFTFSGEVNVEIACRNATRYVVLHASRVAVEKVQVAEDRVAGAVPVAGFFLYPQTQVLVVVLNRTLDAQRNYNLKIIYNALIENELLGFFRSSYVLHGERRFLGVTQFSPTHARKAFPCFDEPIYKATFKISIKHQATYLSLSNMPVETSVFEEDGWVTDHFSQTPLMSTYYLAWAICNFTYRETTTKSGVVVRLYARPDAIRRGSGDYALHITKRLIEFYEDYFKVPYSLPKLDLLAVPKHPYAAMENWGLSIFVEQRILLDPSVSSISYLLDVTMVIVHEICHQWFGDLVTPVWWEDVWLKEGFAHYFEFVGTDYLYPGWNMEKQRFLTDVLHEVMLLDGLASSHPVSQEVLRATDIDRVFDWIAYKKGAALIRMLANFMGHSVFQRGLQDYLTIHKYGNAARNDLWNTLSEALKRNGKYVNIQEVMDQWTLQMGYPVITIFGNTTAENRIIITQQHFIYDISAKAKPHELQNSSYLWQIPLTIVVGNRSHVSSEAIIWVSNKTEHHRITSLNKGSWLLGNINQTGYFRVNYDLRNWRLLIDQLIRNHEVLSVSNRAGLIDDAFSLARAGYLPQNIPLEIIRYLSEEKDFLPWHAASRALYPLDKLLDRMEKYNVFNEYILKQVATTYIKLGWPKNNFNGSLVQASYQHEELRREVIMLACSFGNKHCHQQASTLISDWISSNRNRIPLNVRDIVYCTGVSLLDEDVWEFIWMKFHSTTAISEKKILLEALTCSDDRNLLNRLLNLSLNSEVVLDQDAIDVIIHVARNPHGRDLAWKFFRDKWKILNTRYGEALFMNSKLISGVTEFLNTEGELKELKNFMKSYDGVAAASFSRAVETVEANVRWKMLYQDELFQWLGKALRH
The experiment in a line: continuous coupled fluorometric TRH-DE assay (TRHAMC substrate, DPP-IV coupling enzyme). It counts as biochemical, porcine. The settings on record: for inhibition at 1000 µM: peptide 1 mM. The method, then: (§1) The inventor purified TRH-DE from porcine brain according to purification procedures previously published by Dr. K. Bauer, (Max-Planck-Institut, Hannover, Germany) (1). TRH-DE was purified almost 20,000 fold. […] Dipeptidyl peptidase IV (DPP-IV) (EC 3.4.14.5), purified from bovine kidney (7.7 mg ml^−1, specific activity of 17.5 U mg^−1 with Gly-ProAMC as substrate), was obtained as a gilt from Dr. C. H. Williams (Queen's University Belfast, U.K). (DPP-IV was used as the coupling enzyme used in the fluorometric assays).
(§2) One unit (U) of enzyme activity was defined as that amount catalysing the formation of one μmol of product in one minute under the standard conditions employed. All incubations in the assays described below were carried out in 20 mM potassium phosphate buffer, pH 7.5, at 37° C.
Kinetic analysis of peptides that are not hydrolysed by TRH-DE. A recently-developed continuous coupled fluorometric assay (23) was used to investigate the ability of those library peptides that were not hydrolysed by TRH-DE to inhibit TRHAMC degradation by TRH-DE. In this assay, TRHAMC is the substrate and dipeptidyl peptidase IV (DPP-IV) (EC 3.4.14.5) is the coupling enzyme. The reaction sequence is:
The reaction was monitored continuously by measuring the increase in AMC fluorescence. A linear progress curve with no discernible lag period was observed when the reaction was monitored over a period of 10 minutes. Nevertheless, data sampling was not commenced until 100 s from the start of the reaction to ensure measurements were taken after a steady state had been reached (see Ref. 23).
In a preliminary experiment, the peptides were screened for their ability to inhibit TRH-DE activity. The initial rate of TRHAMC hydrolysis by TRH-DE was measured by incubating 5 μM TRHAMC with 1.23 μg DPP-IV and 0.32 μg TRH-DE, both in the absence and presence of each library peptide (1 mM final concentration) under standard assay conditions (23). In each case the percentage inhibition (i%) was calculated using the equation i%=100(1-vi/vo), where vi and vo are the initial velocities in the presence and absence of peptide, respectively.
Since these peptides were poor inhibitors they were not examined further. The Ki values for the remainder of the peptides were determined by measuring their effects on TRHAMC degradation by TRH-DE using the continuous assay. Data were collected in duplicate at five different substrate concentrations and at least three different concentrations of each peptide.
Reversibility and time dependence of the inhibition produced by Glp-Gln-ProNH2, Glp-Asn-ProNH2 and Glp-Asn-ProAMC were examined by initially preincubating TRH-DE with each peptide at 37° C. for various periods up to 75 min. To investigate time dependence, the enzyme-peptide solution was subsequently added to the reaction mixture containing TRHAMC, DPP-IV, buffer and peptide, and TRH-DE activity was measured using the continuous assay. The final concentration of Glp-Gln-ProNH2, Glp-Asn-ProNH2 and Glp-Asn-ProAMC used was 400, 160 and 1 μM, respectively. […] TRH-DE activity was not affected by pre-incubation at 37° C.
Fluorescence measurements were made using a Perkin Elmer LS 50B Luminescence Spectrometer fitted with a thernostated cell holder. Wavelengths for excitation and emission were set at 370 nm and 440 nm, respectively, with slit widths of 10 nm and 5 nm, respectively.

Series [2] deals with Male Wistar rats. Description: behavioural effects (WDS, locomotion) after i.c.v. administration. It counts as in vivo, rat. Conditions: 5 μg alone, 30 min. The method, then:
Methods: Behavioural studies were conducted using experimentally naïve Male Wistar rats (200-250 g) maintained in a temperature controlled (21° C.), artificially-lighted (12 hr light cycle) room with free access to food and water. Behavioural effects of […] following intra-cerebroventricular (i.c.v.) administration: Animals were implanted with guide cannula aimed at the lateral cerebral ventricles (AP-0.92 mm, ML-1.5 mm, DV-2.6 mm relative to Bregma, atlas of Paxinos & Watson) under halothane anaesthesia. One week following surgery placement of the cannulae was assessed by the ability of a microinjection of angiotensin II (200 ng in 1 μl) to induce drinking behaviour. […] They were then administered either vehicle (1 μl 0.9% saline) or […] (5 μg in 1 μl) followed 1 minute later by vehicle (1 μl 0.9% saline) or TRH (5 μg in 1 μl). One minute after the last i.c.v. injection animals were placed back into the perspex cage and their behaviour monitored by a computer automated tracking system for 30 minutes (Ethovision Pro, Noldus) to provide measures of locomotor activity. Animals were videotaped for subsequent blind analysis of WDS behaviour by a trained observer. A threshold dose of 5 μg TRH was chosen for i.c.v. administration so that if […] enhanced responses to TRH, this would be clearly visible. The statistical significance of differences between behavioural effects of treatments was determined using the Student's t-test or ANOVA, followed by a post-ANOVA test, as indicated. Radioligand binding data were analysed using non-linear curve fitting software (Prism, Graph Pad Software Inc.). IC50 values calculated from competition experiments were converted to Ki values using the Cheng-Prusoff (41) equation Ki=IC50/(1+L/Kd), where L=ligand concentration and Kd=the apparent dissociation constant for [^3[…].

Series [3] addresses TRH receptors in rat cortical membranes. Description: radioligand binding to ^3H-3MeHis-TRH-labelled receptors in rat cortex. The settings on record: competition with 6-8 nM ^3H-3MeHis-TRH, Cheng-Prusoff. The method, then:
Evaluation of the ability of TRH, Glp-Asn-ProNH2, and Glp-Asn-ProAMC to bind to ^3H-3MeHis-TRH-labelled receptors in rat cortex: Radioligand binding assays were conducted to investigate the possibility that the two TRH-DE inhibitors might exert their effects by acting independently at TRH receptors in the brain.
Cortex tissue from male Sprague-Dawley rats (250 g) was dissected out, weighed and homogenised in 30 volumes of ice-cold sodium phosphate buffer (0.02 M, pH 7.5). The homogenates were centrifuged at 30,000 g at 4° C. for 30 min. The supernatant was discarded and the pellet was resuspended at 100 mg wet wt/ml in buffer containing 177 μM bacitracin. […] Non-specific binding was defined in the presence of 10 μM TRH.
The statistical significance of differences between behavioural effects of treatments was determined using the Student's t-test or ANOVA, followed by a post-ANOVA test, as indicated. Radioligand binding data were analysed using non-linear curve fitting software (Prism, Graph Pad Software Inc.). IC50 values calculated from competition experiments were converted to Ki values using the Cheng-Prusoff (41) equation Ki=IC50/(1+L/Kd), where L=ligand concentration and Kd=the apparent dissociation constant for [^3H]-[3-MeHis]TRH.

Series [4] in a line: physchem.
Series [5] concerns the target T1, TRH-DE. Description: HPLC assay of peptide hydrolysis by TRH-DE (Glp production). Conditions: for hydrolysis by TRH-DE (release of Glp): 1 mM peptide incubated with TRH-DE 18 h at 37° C., HPLC; for Rate of hydrolysis: peptide 1 mM, 37° C., Glp production by HPLC, mean±S.D. The format is biochemical, porcine. The method, then: as §1, §2
Kinetic analysis of the peptide library using HPLC—The ability of each peptide in the library to act as a TRH-DE substrate was assessed using HPLC. As an initial screen, 1 mM peptide was incubated with 0.8 μg TRH-DE in a total volume of 1 ml for 18 h at 37° C. Control samples were included in which peptide (1 mM) or Glp (0.2 mM-0.8 mM) were incubated under identical conditions in the absence of TRH-DE. TRH-DE activity was terminated by the addition of TFA (0.15% v/v) and samples were then analysed using HPLC as described previously (24). Products resulting from TRH-DE hydrolysis could be separated on a C-18 reverse-phase column (Hypersil, UK) using a linear gradient of 0-70% acetonitrile in 0.08% (v/v) TFA. The concentration of Glp formed by the action of TRH-DE on the peptide library was measured by UV absorbance at 206 nm with a quantitative detection limit of 0.1 mM for a 40 μl injection volume, employing a signal to noise ratio of 10. Following the incubation of each peptide with TRH-DE, evidence of Glp in the sample was taken to indicate that the peptide was a TRH-DE substrate.
The rates of hydrolysis for each of those peptides identified as substrates were then compared by measuring Gip production using microassays with shorter incubation times. In these assays peptide (1 mM) was incubated at 37° C. in a total volume of 100 μl. 0.8-3.2 μg TRH-DE and incubations times of 5 min to 18 h were used routinely. Measurements were made in triplicate. The rate of TRH-OH hydrolysis was also measured by this method.

Series [6] has as its system TRH-DE. The settings on record: published observation (21); cited from earlier work.
In series [7] the target is T1, TRH-DE. The settings on record: From Ref. 23 (inventor's publication); cited from earlier work.
[8] abbreviates: non-linear regression, five TRHAMC concentrations and at least three peptide concentrations, mean±S.D. (n=3).
[9] abbreviates: estimated from <20% inhibition at 1 mM peptide with the competitive inhibition relationship.

What is called Ki is a measure of affinity in units of concentration, obtained from inhibition or displacement. A word on the inhibition: it is the change of the read-out against control, counted positive when it falls. A high value points to strong suppression. Broadly, the pKi is the negative decadic logarithm of the Ki, by convention in mol/L. For orientation: solubility means the concentration that dissolves in the medium under given conditions. Read a low solubility as little dissolved substance. `Cc1cc(=O)oc2cc(NC(=O)[C@@H]3CCCN3C(=O)[C@H](CC(N)=O)NC(=O)[C@@H]3CCC(=O)N3)ccc12` [Glp-Asn-ProAMC, Glp-Asn-Pro-7amido-4-methyl coumarin] ([pGlu]-Asn-Pro-{AMC}): the Ki was 0.41 µM in series [1] (calculated from percent inhibition measured in duplicate at 5 μM substrate) and 0.97 ± 0.08 µM in series [1] (setting [8]). The “mode of inhibition of TRH-DE” value in series [1] (continuous assay, Lineweaver-Burk plot) is recorded as “simple competitive inhibitors”. This compound also gave an inhibition at 1 µM in series [1] (peptide 1 μM, 5 μM TRHAMC substrate) of 50%. In addition, the “reversibility and time dependence of inhibition” value in series [1] (preincubation with TRH-DE up to 75 min at 37° C., Glp-Gln-ProNH2 400, Glp-Asn-ProNH2 160, Glp-Asn-ProAMC 1 μM) is “fully reversible and not time-dependent”. The “number of WDS compared with vehicle” value in series [2] is reported as “Neither TRH nor Glp-Asn-ProAMC alone produced a significantly greater number of WDS than vehicle”. In addition, the pKi in series [3] is listed as 4.32±0.24. Also, the solubility in series [4] was 1 mg/mL (≈ 2010 µM).

With `NC(=O)[C@@H]1CCCN1C(=O)[C@H](CCC(=O)O)NC(=O)[C@@H]1CCC(=O)N1` [Glp-Glu-ProNH2] ([pGlu]-Glu-Pro-NH2), the “hydrolysis by TRH-DE (release of Glp)” value in series [5] is “No detectable Glp”. Also, the Ki in series [1] (setting [9]) was > 1000 µM. In series [1] (5 μM TRHAMC substrate), the inhibition at 1000 µM came out at 17%. Moreover, the “substrate for TRH-DE” value in series [6] is given as “is not”.

Take `NC(=O)[C@@H]1CCCN1C(=O)[C@H](Cc1ccccc1)NC(=O)[C@@H]1CCC(=O)N1` [Glp-Phe-ProNH2] ([pGlu]-Phe-Pro-NH2): the Rate of hydrolysis in series [5] was 1.56 ± 0.13 (5) U mg^−1. Moreover, in series [6], the “substrate for TRH-DE” value is listed as “is also a substrate for TRH-DE”.

Take `NC(=O)[C@@H]1CCCN1C(=O)[C@@H](NC(=O)[C@@H]1CCC(=O)N1)c1ccccc1` [Glp-Phg-ProNH2] ([pGlu]-[Phg]-Pro-NH2): the “hydrolysis by TRH-DE (release of Glp)” value in series [5] was “No detectable Glp”. For the same compound, in series [1] (setting [8]), the affinity, expressed as Ki, was 356 ± 19 µM. This compound also gave an inhibition at 1000 µM in series [1] (5 μM TRHAMC substrate) of 57%.

As to `NC(=O)[C@@H]1CCCN1C(=O)[C@@H]1CCCN1C(=O)[C@@H]1CCC(=O)N1` [Glp-Pro-ProNH2] ([pGlu]-Pro-Pro-NH2), in series [5], the “hydrolysis by TRH-DE (release of Glp)” value is recorded as “No detectable Glp”. In addition, the Ki in series [1] (setting [9]) is > 1000 µM. Testing at 1000 µM in series [1] (5 μM TRHAMC substrate) gave an inhibition of 3%.

Take `NC(=O)[C@@H]1CCCN1C(=O)[C@H](Cc1c[nH]c2ccccc12)NC(=O)[C@@H]1CCC(=O)N1` [Glp-Trp-ProNH2] ([pGlu]-Trp-Pro-NH2): the “hydrolysis by TRH-DE (release of Glp)” value in series [5] is “No detectable Glp”. This compound also showed a Ki in series [1] (setting [8]) of 232 ± 26 µM. The same compound registered an inhibition at 1000 µM in series [1] (5 μM TRHAMC substrate) of 71%.

Take `NC(=O)[C@@H]1CCCN1C(=O)[C@@H]1CCCCN1C(=O)[C@@H]1CCC(=O)N1` [Glp-homoPro-ProNH2] ([pGlu]-[Pip]-Pro-NH2): in series [5], the “hydrolysis by TRH-DE (release of Glp)” value is “No detectable Glp”. The compound also returned a Ki in series [1] (setting [8]) of 500 ± 133 µM. In series [1] (5 μM TRHAMC substrate), this compound displayed an inhibition at 1000 µM of 40%.

By Km is commonly meant the substrate concentration at which the rate is half of its maximum. As for Glp-His-ProOH, the Vmax in series [5] (estimated from HPLC rates of hydrolysis using Vmax=vo{(Km+[S])/[S]}) was 4.43 ± 0.24 (3) U mg^−1. For the same compound, the Rate of hydrolysis in series [5] was 3.38 ± 0.18 (3) U mg^−1. In addition, the Km in series [7] is 311 µM.
